Consider 3 compounds from PMC12350170, “Structural basis for the synergistic assembly of the snRNA export complex” (Nature Structural & Molecular Biology, 2025).

What all share (format): binding
In one test the target is T1, CBC (CBP80ΔNLS–CBP20) (Homo sapiens, UniProt P52298).
T1 construct: gene NCBP2; heterodimer; CBP80ΔNLS (lacks N-terminal 19 residues) from High Five insect cells; CBP20 as His-GST fusion from E. coli, tag cleaved by TEV
T1 sequence (P52298 2-156): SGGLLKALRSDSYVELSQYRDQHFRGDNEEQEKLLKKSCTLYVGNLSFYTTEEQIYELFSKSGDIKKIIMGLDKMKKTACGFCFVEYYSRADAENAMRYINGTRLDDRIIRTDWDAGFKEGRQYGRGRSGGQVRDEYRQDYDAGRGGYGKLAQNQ
T1 sequence (Q09161 20-790 partner): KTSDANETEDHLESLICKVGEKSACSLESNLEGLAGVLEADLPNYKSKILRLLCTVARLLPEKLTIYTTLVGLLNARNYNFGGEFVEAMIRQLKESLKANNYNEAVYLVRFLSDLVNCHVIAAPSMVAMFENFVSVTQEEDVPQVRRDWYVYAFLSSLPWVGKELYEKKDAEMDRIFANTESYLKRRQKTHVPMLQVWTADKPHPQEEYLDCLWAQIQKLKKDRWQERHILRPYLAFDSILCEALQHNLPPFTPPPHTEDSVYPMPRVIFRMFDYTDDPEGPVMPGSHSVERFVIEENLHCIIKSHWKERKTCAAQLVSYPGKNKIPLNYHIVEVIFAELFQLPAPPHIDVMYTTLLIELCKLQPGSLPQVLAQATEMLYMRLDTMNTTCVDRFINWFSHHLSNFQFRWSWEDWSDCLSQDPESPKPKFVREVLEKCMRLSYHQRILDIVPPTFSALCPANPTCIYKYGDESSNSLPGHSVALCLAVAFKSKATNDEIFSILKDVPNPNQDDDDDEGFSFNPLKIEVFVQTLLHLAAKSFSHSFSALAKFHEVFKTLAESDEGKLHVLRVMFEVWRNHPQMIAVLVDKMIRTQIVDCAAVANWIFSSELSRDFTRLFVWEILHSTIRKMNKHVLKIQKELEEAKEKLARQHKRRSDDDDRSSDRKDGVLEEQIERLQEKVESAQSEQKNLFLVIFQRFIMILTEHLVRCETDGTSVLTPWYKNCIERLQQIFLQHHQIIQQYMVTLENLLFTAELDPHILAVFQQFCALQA
The test is described as follows: isothermal titration calorimetry. On the technique in general: Isothermal titration calorimetry measures the heat released or taken up as one component is titrated into another.

The target of test [1] is T2, Ran (RanGTP) in the snRNA export complex with CRM1, PHAX, CBC (Homo sapiens, UniProt P62826, Q69L).
T2 construct: Ran Q69L as His-tag fusion from E. coli, loaded with GTP; His-CRM1; CK2-phosphorylated full-length PHAX; CBP80ΔNLS–CBP20; capped 14-nt RNA; with Exportin-1; Phosphorylated adapter RNA export protein
Kind of test: cryo-EM structure of the complex. The settings on record: Mg2+ present; Ran nucleotide site; complex with CRM1, phosphorylated PHAX, CBC and capped RNA.

For test [2], the target named is T3, CBC in complex with PHAX^103–196 (Homo sapiens, UniProt P52298).
T3 construct: gene NCBP2; CBC (CBP80ΔNLS lacking N-terminal 19 residues; CBP20, tag cleaved) plus PHAX residues 103-196 made as His-MBP fusion in E. coli, not phosphorylated; Phosphorylated adapter RNA export protein
The test is described as follows: isothermal titration calorimetry.

T3 sequence (Q9H814 103-196 partner, one chain of several): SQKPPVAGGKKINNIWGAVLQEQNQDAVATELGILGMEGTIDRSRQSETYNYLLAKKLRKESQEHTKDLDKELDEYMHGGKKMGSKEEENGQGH

The Kd is the free concentration of one partner at which half of the binding sites on the other are occupied at equilibrium, for simple one-to-one binding. Low values mean higher affinity, high ones lower affinity. As for `C[n+]1cn([C@@H]2O[C@H](COP(=O)(O)OP(=O)(O)OP(=O)(O)O)[C@@H](O)[C@H]2O)c2nc(N)[nH]c(=O)c21` [m^7GTP], on CBC (CBP80ΔNLS–CBP20), the Kd was 0.3 µM.

Regarding `Nc1nc2c(ncn2[C@@H]2O[C@H](COP(=O)(O)OP(=O)(O)OP(=O)(O)O)[C@@H](O)[C@H]2O)c(=O)[nH]1` [GTP], in test [1], the “cryo-EM structure of the complex” value is listed as “the catalytic mutant of Ran (Q69L) bound to GTP”.

With `C[n+]1cn([C@@H]2O[C@H](COP(=O)(O)OP(=O)(O)OP(=O)(O)OC[C@H]3O[C@@H](n4cnc5c(=O)[nH]c(N)nc54)[C@H](O)[C@@H]3O)[C@@H](O)[C@H]2O)c2nc(N)[nH]c(=O)c21` [m^7GpppG], the dissociation constant Kd on CBC (CBP80ΔNLS–CBP20) came to 0.096 µM; in test [2], 0.1 µM.
